Experiment: healing test: topical 4-hydroxy-androstenedione cream applied to the breasts of patients with mastalgia
Type: in vivo, human
From the text: Treatments acting with 4-hydroxy-androstenedione for mastalgia syndrome are described, wherein instead of 4-hydroxy-androstenedione, other aromatase inhibitors may be used.
Findings: Tension-related pains in both breasts occurring 3 to 5 days before each menstruation, apparently bundled shooting into the breast nipples. Then slowly decreasing pains, symptoms and signs and tension states during the menstruation period until about the 10th day after onset of menstruation.
A cream treated with 0.5 wt. % of 4-hydroxy-androstenedione was used (0.5% of 4OH-androstenedione introduced into 100 ml of ash-based cream). 4 g were administered daily, and specifically 2 g applied externally to each breast and carefully massaged in.
Start of healing test about 3 weeks before the period.
Continuation of the healing test with daily administration of 4-OH-androstenedione cream 0.5% strength.
Findings: For years, severe swelling and tension feeling occurring in each case 3-5 days before menstruation with diffuse pain symptoms and signs radiating into the thorax, which is almost unbearable until the onset of menstruation. For years, unable to work 1-3 days per month due to these pains. Disappearance of symptoms and signs only on 8th-12th day after onset of menstruation.
Healing test using 1% strength 4-OH-androstenedione cream (1 g of 4-OH-androstenedione introduced into 100 ml of ash-based cream).
Dose 1×daily 4 g, in each case 2 g applied to each breast.
The start of the healing test took place about 2 weeks before onset of menstruation.
Continuation of the healing test using 0.5% strength 4-OH-androstenedione cream (0.5 g of 4-OH-androstenedione introduced into 100 ml of ash-based cream) 4 g daily, that is 2 g applied to each breast.

[1] = Example 2, 1% strength cream, 1x daily 4 g, subsequent period 2
[2] = Example 2, continuation with 0.5% strength cream, 4 g daily, subsequent periods

## C[C@]12CCC(=O)C(O)=C1CC[C@@H]1[C@@H]2CC[C@]2(C)C(=O)CC[C@@H]12 [4-hydroxy-androstenedione, 4-hydroxyandrostenedione]
Example 1, person, 0.5 wt. % cream, 4 g daily (2 g each breast), first subsequent period
  tension pain: Significantly reduced tension pain
Example 1, 0.5% strength cream daily, second subsequent period
  pain: complete freedom from pain
Example 1, 0.5 wt. % cream, 4 g daily, first subsequent period
  course of symptoms and signs: symptoms and signs subsided more rapidly
Example 1, 0.5 wt. % cream, 4 g daily, first subsequent period (before treatment until about the 10th day)
  time to pain-free after start of menstruation: 5 days
Example 2, person, 1% strength cream, 1x daily 4 g, subsequent period 1
  course of mastalgia: somewhat blander course
Example 2, 1% strength cream, 1x daily 4 g, subsequent period 1 (before treatment 1-3 days per month)
  inability to work: 1 days
[1]
  inability to work: no inability to work
  pain symptoms and signs: considerably lower pain symptoms and signs
  swelling and tension feeling: Significantly lower swelling and tension feeling
[2]
  mastopathy-related inability to work: no mastopathy-related inability to work
  pain: practically pain-free
  swelling and tension feelings: Hardly any swelling and tension feelings
